According to the supplement of paper PMC10307832:

Experiments:
Experiment in all cases: relative viability (nuclei count vs DMSO), 5 days (fraction); higher = more cells survive
Adavosertib + Tozasertib = compound: C=CCn1c(=O)c2cnc(Nc3ccc(N4CCN(C)CC4)cc3)nc2n1-c1cccc(C(C)(C)O)n1 [Adavosertib] + Cc1cc(Nc2cc(N3CCN(C)CC3)nc(Sc3ccc(NC(=O)C4CC4)cc3)n2)n[nH]1 [Tozasertib] (partner 0.1 µM)
Method in brief: (§1)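 After 5 days of treatment, lung cancer cells in 1536-well plates were fixed and stained in a single step (final 0.05% Triton X-100, 1% formaldehyde, 1 ug/ml Hoechst) and their nuclei counted on 4× images. Treatment had been applied by pin tool the day after seeding as one drug alone or as a fixed anchor-drug dose with five library-drug doses (not always all listed) in √10 steps. Relative viability is the nuclei count of treated wells divided by that of vehicle wells, and values are medians of duplicate plates.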

Nelarabine + Navitoclax = compound: COc1nc(N)nc2c1ncn2[C@@H]1O[C@H](CO)[C@@H](O)[C@@H]1O [Nelarabine] + CC1(C)CCC(c2ccc(Cl)cc2)=C(CN2CCN(c3ccc(C(=O)NS(=O)(=O)c4ccc(N[C@H](CCN5CCOCC5)CSc5ccccc5)c(S(=O)(=O)C(F)(F)F)c4)cc3)CC2)C1 [Navitoclax] (partner 0.5 µM)
Method in brief: as §1

Nelarabine + Linsitinib = compound: COc1nc(N)nc2c1ncn2[C@@H]1O[C@H](CO)[C@@H](O)[C@@H]1O [Nelarabine] + C[C@]1(O)C[C@@H](c2nc(-c3ccc4ccc(-c5ccccc5)nc4c3)c3c(N)nccn32)C1 [Linsitinib] (partner 1 µM)
Method in brief: as §1

Nelarabine + Palbociclib = compound: COc1nc(N)nc2c1ncn2[C@@H]1O[C@H](CO)[C@@H](O)[C@@H]1O [Nelarabine] + CC(=O)c1c(C)c2cnc(Nc3ccc(N4CCNCC4)cn3)nc2n(C2CCCC2)c1=O [Palbociclib] (partner 0.5 µM)
Method in brief: as §1

Row | Cell Line | relative viability (Adavosertib + Tozasertib; first compound 0.01 µM) | relative viability (Adavosertib + Tozasertib; first compound 0.03162 µM) | relative viability (Adavosertib + Tozasertib; first compound 0.1 µM) | relative viability (Adavosertib + Tozasertib; first compound 0.3162 µM) | relative viability (Nelarabine + Navitoclax; first compound 0.01 µM) | relative viability (Nelarabine + Navitoclax; first compound 0.03162 µM) | relative viability (Nelarabine + Navitoclax; first compound 0.1 µM) | relative viability (Nelarabine + Navitoclax; first compound 0.3162 µM) | relative viability (Nelarabine + Navitoclax; first compound 1 µM) | relative viability (Nelarabine + Linsitinib; first compound 0.01 µM) | relative viability (Nelarabine + Linsitinib; first compound 0.03162 µM) | relative viability (Nelarabine + Linsitinib; first compound 0.1 µM) | relative viability (Nelarabine + Linsitinib; first compound 0.3162 µM) | relative viability (Nelarabine + Linsitinib; first compound 1 µM) | relative viability (Nelarabine + Palbociclib; first compound 0.01 µM) | relative viability (Nelarabine + Palbociclib; first compound 0.03162 µM) | relative viability (Nelarabine + Palbociclib; first compound 0.1 µM) | relative viability (Nelarabine + Palbociclib; first compound 0.3162 µM) | relative viability (Nelarabine + Palbociclib; first compound 1 µM)
1 | NCI-H2085 | 0.738 | 0.788 | 0.956 | 0.799 | 1.08 | 1.08 | 1.18 | 1.18 | 1.18 | 1.3 | 0.747 | 0.848 | 0.883 | 0.867 | 0.479 | 0.437 | 0.479 | 0.459 | 0.431
2 | LK-2 | 0.172 | 0.2 | 0.171 | 0.19 | 0.975 |  | 1.09 | 0.935 | 0.729 | 1.24 |  | 0.608 | 0.691 | 0.673 | 1.04 |  | 0.772 | 0.835 | 0.684
3 | NCI-H2009 | 0.787 | 0.749 | 1.05 | 0.749 | 1.26 | 1.18 | 1.19 | 1.2 | 1.18 | 1.29 | 1.26 | 1.14 | 1.23 | 1.19 | 0.194 | 0.206 | 0.203 | 0.161 | 0.192
4 | BEN | 0.598 | 0.474 | 0.494 | 0.629 | 0.0794 | 0.0676 | 0.187 | 0.0641 | 0.0472 | 1.27 | 0.818 | 1 | 1.04 | 1.07 | 0.532 | 0.452 | 0.497 | 0.491 | 0.494
5 | RERF-LC-KJ | 0.555 | 0.627 | 0.577 | 0.668 | 0.859 | 1.12 | 0.901 | 1.08 | 0.783 | 0.908 | 1.06 | 0.915 | 0.907 | 0.884 | 1.13 | 1.17 | 1.09 | 1.17 | 0.97
6 | LU99A | 0.284 | 0.273 | 0.263 | 0.273 | 0.918 | 0.821 | 0.845 | 0.765 | 0.758 | 0.534 | 0.461 | 0.669 | 0.581 | 0.617 | 0.48 | 0.34 | 0.429 | 0.43 | 0.399
7 | PC-14 | 0.6 | 0.566 | 0.843 | 0.69 | 1.09 | 1.11 | 1.05 | 1.05 | 1.03 | 1.03 | 0.96 | 0.986 | 0.979 | 1.03 | 0.705 | 0.53 | 0.582 | 0.601 | 0.706
8 | NCI-H1651 | 0.7 | 0.702 | 0.832 | 0.668 | 1.48 | 1.1 | 1.1 | 1.04 | 1.08 | 1.13 | 0.88 | 1.15 | 0.992 | 0.906 | 0.566 | 0.596 | 0.553 | 0.512 | 0.522
9 | NCI-H2023 | 0.453 | 0.391 | 0.414 | 0.266 | 1.26 | 1.17 | 1.03 | 1.07 | 1.01 | 0.7 | 0.854 | 0.554 | 0.625 | 0.561 | 0.321 | 0.369 | 0.348 | 0.336 | 0.302
